According to US20230255943A1, “MMP-9 AND MMP-12 INHIBITION FOR TREATING SPINAL CORD INJURY OR RELATED INJURY TO NEUROLOGICAL TISSUE” (The University of Birmingham, priority 2020, published 2023):

Legend:
MMP-12 = molecular target: T1, MMP-12 (Mus musculus, UniProt P34960); assay: MMP-12 enzyme activity after SCI in mice (SensoLyte 520 fluorimetric assay); format: in vivo; settings: for suppression of MMP-12 activity in CSF / suppression of MMP-12 activity in serum / suppression of MMP-12 activity in spinal cord tissues: DC injury; for suppression of MMP-12 activity in spinal cord tissues: lowest most effective dose
T1 construct: from tissue; host or cells: mouse spinal cord lesion site homogenate, serum and CSF
T1 sequence (P34960 110-473): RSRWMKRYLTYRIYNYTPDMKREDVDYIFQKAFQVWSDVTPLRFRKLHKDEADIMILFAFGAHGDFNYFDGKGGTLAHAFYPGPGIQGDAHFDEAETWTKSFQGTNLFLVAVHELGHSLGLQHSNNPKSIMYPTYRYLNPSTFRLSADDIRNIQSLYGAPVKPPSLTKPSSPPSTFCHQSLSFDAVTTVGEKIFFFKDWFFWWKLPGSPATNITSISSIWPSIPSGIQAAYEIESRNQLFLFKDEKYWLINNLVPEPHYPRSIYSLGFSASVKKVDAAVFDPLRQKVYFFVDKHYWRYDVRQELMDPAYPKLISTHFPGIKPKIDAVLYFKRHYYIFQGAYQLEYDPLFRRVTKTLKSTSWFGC
Protocol: For oral delivery of AZD1236, n=6 adult male C57BL6 mice/group (Charles River, Margate, UK) were randomly allocated to either: (1), Sham (control; partial laminectomy but no DC crush injury); (2), DC crush injury+vehicle (partial laminectomy followed by DC crush injury and injection of vehicle); (3), DC crush injury+100 mg/kg AZD1236; (4), DC crush injury+200 mg/kg AZD1236; and (5), DC crush injury+300 mg/kg AZD1236. For intrathecal (it) delivery of AZD1236, adult male C57BL6 mice (25-30 g) (Charles River, Margate, UK) were randomly allocated to either: (1), Sham (control; partial laminectomy but no DC crush injury); (2), DC crush injury+vehicle (partial laminectomy followed by DC crush injury and injection of vehicle); (3), DC crush injury+2.5 mg/kg AZD1236; (4), DC crush injury+5 mg/kg AZD1236; and (5), DC crush injury+10 mg/kg AZD1236. For intrathecal delivery an indwelling atlanto-occipital intrathecal catheter was inserted into the intrathecal space, as described previously (F. A. Oladosu, B. P. Ciszek, S. C. O'Buckley, A. G. Nackley, Novel intrathecal and subcutaneous catheter delivery systems in the mouse. J Neurosci Methods 264, 119-128 (2016)). Briefly, with mice in the sternal recumbency a small incision was made at the nape of the neck followed by detachment of the muscles on either side of the external occipital crest to expose the A-O membrane. The membrane was incised and a 6 cm Alzet mouse intrathecal catheter (Alzet, Cupertino, Calif., USA) and polyurethane segments were gently guided 2.5 cm into the intrathecal space. The catheter was secured using 4-0 silk sutures (Oasis Medical, IL) and the exposed end of the catheter was sealed off with a stainless-steel plug and affixed to the upper back. Animals were injected immediately with vehicle or AZD1236 followed by a 10 μl PBS catheter flush. Injections were repeated every twice daily for the first 3 days after injury and drugs and vehicle reagents were delivered over 1 min time period using a Hamilton microlitre syringe (Hamilton Co, USA). Where specified intact animals with no surgical procedures were also used. All lesions were administered under 5% isofluorane induced inhalation anaesthesia, with 1.51/min O2. Pre- and post-injury analgesia was also provided.
DC crush injury was administered bilaterally at the T8 vertebral level as described previously (S. Surey, M. Berry, A. Logan, R. Bicknell, Z. Ahmed, Differential cavitation, angiogenesis and wound-healing responses in injured mouse and rat spinal cords. Neuroscience 275, 62-80 (2014); M. L. Read, S. Mir, R. Spice, R. J. Seabright, E. L. Suggate, Z. Ahmed, M. Berry, A. Logan, Profiling RNA interference (RNAi)-mediated toxicity in neural cultures for effective short interfering RNA design. J Gene Med 11, 523-534 (2009)). Briefly, calibrated watchmaker's forceps were separated by 0.5 mm and inserted through the dorsal cord meninges to a depth of 0.45 mm in mice and separated by 1 mm and inserted through the dorsal cord meninges to a depth of 1.0 mm in rats, and the DC were crushed for 3 seconds. AZD1236 or vehicle was administered twice daily by oral gavage or intrathecally, either immediately for the first 3 days or 24 hours after injury and treating twice daily until day 4 (i.e. 3 days of AZD1236 dosing). All experiments were performed with n=6 mice/group and repeated on at least 2-3 independent occasions (total=12-18 animals/group/test).
CC SCI was administered at the T7-T8 vertebral level after exposure of T6-T9 by laminectomy. […]

[1] = tested on: mice with DC crush injury; assay: Immunohistochemistry of scar tissue (laminin, Sema-3A, CS-56) at lesion site; format: in vivo, mouse; settings: for attenuation of laminin immunoreactivity (scar tissue): 4 weeks after DC injury
Excerpt: After killing animals by exposure to rising concentrations of CO2, mice were intracardially perfused with 4% formaldehyde (TAAB Laboratories, Berkshire, UK) in 0.1M phosphate buffered saline (PBS). The lesion site+5 mm either side were dissected out, post-fixed in 4% formaldehyde and subjected to a graded series of sucrose solutions for cryoprotection. Spinal cords were blocked in OCT mounting compound (TAAB laboratories), sectioned longitudinally at 15 μm-thick using a cryostat (Brights Instruments, Huntingdon, UK) before being collected on charged glass slides (ThermoFisher Scientific, Loughborough, UK) and kept at −20° C. until required. Slides were numbered consecutively and sections from the middle of the lesion site were chosen for all immunohistochemical analyses, as described by previously (Surey S, Berry M, Logan A, Bicknell R, Ahmed Z. Differential cavitation, angiogenesis and wound-healing responses in injured mouse and rat spinal cords. Neuroscience 2014; 275: 62-80).
Fluorescent immunohistochemistry was performed as described previously (S. Surey, M. Berry, A. Logan, R. Bicknell, Z. Ahmed, Differential cavitation, angiogenesis and wound-healing responses in injured mouse and rat spinal cords. Neuroscience 275, 62-80 (2014)). […] Laminin was detected at 4 weeks after DC injury and treatment using a rabbit polyclonal anti-laminin primary antibody (ab11575; 1:400 dilution, Abcam). Macrophages were detected with a rabbit polyclonal anti-CD68 antibody (ab1525212; 1:500 dilution, Abcam); microglia were detected using a rabbit polyclonal antibody to CD11b (ab128797, 1:500 dilution, Abcam); GFAP was detected using a polyclonal anti-GFAP antibody (SAB5700611, 1:400 dilution, Sigma) were all detected at 10 days after DC injury and treatment. Semaphorin-3A (Sema-3A) and chondroitin sulphate proteoglycan (CSPG) was detected using monoclonal anti-CS-56 antibody (C8035; 1:200 dilution, Sigma) at 7 days after injury. […] CTB labelled axons in the mouse were detected using a goat polyclonal anti-CTB antibody (#703; 1:1000 dilution, List Biological Labs) at 6 weeks after DC injury.
All analyses were performed by investigators masked to the experimental groups. Relative fluorescent staining intensity was calculated by image analysis as described previously (Surey S, Berry M, Logan A, Bicknell R, Ahmed Z. Differential cavitation, angiogenesis and wound-healing responses in injured mouse and rat spinal cords. Neuroscience 2014; 275: 62-80). Briefly, photomicrographs taken at 5× magnification using the same standardized exposure settings throughout for each antibody were thresholded and the mean integrated intensity of pixels/unit area for each antibody was recorded Using ImageJ (NIH, USA) from n=12 mice/antibody.

[2] = immediate or delayed by 24 h, 7 days (8 days delayed group)

## C[C@]1(CS(=O)(=O)N2CC=C(C#Cc3cnc(C4CC4)nc3)CC2)NC(=O)NC1=O [AZD1236]
MMP-12; intrathecal delivery
  suppression of MMP-12 activity in CSF: 90±1%
  suppression of MMP-12 activity in serum: 71±1%
MMP-12; intrathecal
  suppression of MMP-12 activity in spinal cord tissues: 86±4%
MMP-12; oral delivery, 200 mg/kg
  suppression of MMP-12 activity in CSF: 69±3%
  suppression of MMP-12 activity in serum: 90±3%
MMP-12; oral
  suppression of MMP-12 activity in spinal cord tissues: 85±3%
MMP-12; injury site, oral dosing withdrawn after 3 d
  time for MMP-12 activity to return to DC+Vehicle injury levels after withdrawal: 5 days
MMP-12; optimal doses, 24 h delay vs immediate
  MMP-12 activity, 24-h delayed treatment: equally as effective as immediate delivery
[1]; 24 hour delayed
  attenuation of laminin immunoreactivity (scar tissue): > 77%
[1]; [2]
  attenuation of CS-56 immunoreactivity at the lesion site: > 81%
  attenuation of Sema-3A immunoreactivity at the lesion site: > 84%
[1]; immediately after injury
  attenuation of laminin immunoreactivity (scar tissue): > 80%
